According to patent EP1280528B1, “R-ELIPRODIL FOR TREATING GLAUCOMA” (Alcon, Inc, priority 2000, dated 2001):
“Also recorded” adds a separate entry of the source.

Key:
histamine H1 = histamine H1 (Homo sapiens, UniProt P35367); experiment: binding studies, histamine H1
Excerpt: (§1) The role of these pharmacological activities in the neuroprotective efficacy has not been established for this drug.

β3-adrenergic = β3-adrenergic (Homo sapiens, UniProt P13945); experiment: binding studies, β3-adrenergic
β3-adrenergic, sequence (P13945 whole entry): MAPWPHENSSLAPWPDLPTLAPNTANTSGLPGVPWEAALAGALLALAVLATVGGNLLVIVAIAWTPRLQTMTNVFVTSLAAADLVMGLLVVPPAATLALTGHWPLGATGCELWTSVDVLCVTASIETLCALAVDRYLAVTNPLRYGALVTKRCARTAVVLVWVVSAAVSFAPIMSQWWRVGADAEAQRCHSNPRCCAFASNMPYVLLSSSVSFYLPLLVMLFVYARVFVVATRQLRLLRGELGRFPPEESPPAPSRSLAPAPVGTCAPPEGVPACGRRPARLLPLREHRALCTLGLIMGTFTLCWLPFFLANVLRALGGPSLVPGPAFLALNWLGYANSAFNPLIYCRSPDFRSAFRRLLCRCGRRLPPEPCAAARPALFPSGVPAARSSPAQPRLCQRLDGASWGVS
Excerpt: as §1

5-HT uptake = 5-HT uptake (Homo sapiens, UniProt P31645); experiment: binding studies, 5-HT uptake
5-HT uptake, sequence (P31645 whole entry): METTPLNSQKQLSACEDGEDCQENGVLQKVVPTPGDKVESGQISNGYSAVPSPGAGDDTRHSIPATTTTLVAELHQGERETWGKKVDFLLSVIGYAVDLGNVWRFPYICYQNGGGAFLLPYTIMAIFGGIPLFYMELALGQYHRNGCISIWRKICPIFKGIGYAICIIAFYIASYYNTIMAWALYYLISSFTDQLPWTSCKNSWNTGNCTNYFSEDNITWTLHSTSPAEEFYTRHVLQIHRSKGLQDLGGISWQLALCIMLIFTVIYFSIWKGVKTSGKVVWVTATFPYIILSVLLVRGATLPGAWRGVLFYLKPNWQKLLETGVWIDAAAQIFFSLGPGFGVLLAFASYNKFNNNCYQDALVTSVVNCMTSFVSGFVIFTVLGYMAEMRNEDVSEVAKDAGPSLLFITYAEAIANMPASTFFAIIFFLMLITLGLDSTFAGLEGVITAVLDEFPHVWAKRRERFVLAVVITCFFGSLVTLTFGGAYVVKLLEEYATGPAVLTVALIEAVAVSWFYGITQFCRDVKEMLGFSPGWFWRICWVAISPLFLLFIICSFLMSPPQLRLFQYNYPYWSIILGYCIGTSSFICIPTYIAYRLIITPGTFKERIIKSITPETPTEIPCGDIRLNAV
Excerpt: as §1

5-HT2A = 5-HT2A (Homo sapiens, UniProt P28223); experiment: binding studies, 5-HT2A
5-HT2A, sequence (P28223 whole entry): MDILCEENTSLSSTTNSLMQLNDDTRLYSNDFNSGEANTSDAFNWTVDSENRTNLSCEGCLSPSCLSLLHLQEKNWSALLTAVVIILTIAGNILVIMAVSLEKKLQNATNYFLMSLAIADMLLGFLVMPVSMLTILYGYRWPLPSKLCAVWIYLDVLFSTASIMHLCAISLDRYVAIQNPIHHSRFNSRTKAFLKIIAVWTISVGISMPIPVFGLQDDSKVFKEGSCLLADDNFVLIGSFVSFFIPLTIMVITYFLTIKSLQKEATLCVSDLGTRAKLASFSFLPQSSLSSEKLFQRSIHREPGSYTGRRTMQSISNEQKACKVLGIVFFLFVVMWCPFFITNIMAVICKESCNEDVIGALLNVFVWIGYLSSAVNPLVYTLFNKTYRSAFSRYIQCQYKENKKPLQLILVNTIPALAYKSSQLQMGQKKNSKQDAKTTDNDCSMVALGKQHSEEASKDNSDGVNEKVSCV
Excerpt: as §1

5-HT1A = target: T1, 5-HT1A (Homo sapiens, UniProt P08908); experiment: binding studies, 5-HT1A
T1 sequence (P08908 1-422): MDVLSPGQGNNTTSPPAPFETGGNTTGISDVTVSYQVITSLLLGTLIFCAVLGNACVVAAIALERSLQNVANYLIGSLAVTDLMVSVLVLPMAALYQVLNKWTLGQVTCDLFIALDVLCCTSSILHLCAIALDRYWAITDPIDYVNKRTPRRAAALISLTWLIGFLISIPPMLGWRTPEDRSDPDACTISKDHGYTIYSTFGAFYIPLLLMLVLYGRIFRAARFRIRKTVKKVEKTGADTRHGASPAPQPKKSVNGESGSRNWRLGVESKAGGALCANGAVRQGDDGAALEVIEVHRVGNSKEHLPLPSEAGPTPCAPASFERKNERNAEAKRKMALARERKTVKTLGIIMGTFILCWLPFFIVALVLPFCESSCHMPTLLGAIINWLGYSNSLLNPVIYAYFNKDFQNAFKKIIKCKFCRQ
Excerpt: as §1

histamine H2 = histamine H2 (Homo sapiens, UniProt P25021); experiment: binding studies, histamine H2
histamine H2, sequence (P25021 whole entry): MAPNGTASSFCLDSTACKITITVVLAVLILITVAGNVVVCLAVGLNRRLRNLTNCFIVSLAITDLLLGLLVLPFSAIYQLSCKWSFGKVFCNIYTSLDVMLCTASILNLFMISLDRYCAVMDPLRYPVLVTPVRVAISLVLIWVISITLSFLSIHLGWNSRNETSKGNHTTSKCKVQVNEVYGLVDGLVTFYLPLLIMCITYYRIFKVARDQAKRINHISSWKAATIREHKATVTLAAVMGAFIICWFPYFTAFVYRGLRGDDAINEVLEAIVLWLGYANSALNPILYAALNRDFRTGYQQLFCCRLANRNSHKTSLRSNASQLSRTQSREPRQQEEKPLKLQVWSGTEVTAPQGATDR
Excerpt: as §1

α1-adrenergic = experiment: binding studies, α1-adrenergic
Excerpt: as §1

5-HT7 = 5-HT7 (Homo sapiens, UniProt P34969); experiment: binding studies, 5-HT7
5-HT7, sequence (P34969 whole entry, species assumed): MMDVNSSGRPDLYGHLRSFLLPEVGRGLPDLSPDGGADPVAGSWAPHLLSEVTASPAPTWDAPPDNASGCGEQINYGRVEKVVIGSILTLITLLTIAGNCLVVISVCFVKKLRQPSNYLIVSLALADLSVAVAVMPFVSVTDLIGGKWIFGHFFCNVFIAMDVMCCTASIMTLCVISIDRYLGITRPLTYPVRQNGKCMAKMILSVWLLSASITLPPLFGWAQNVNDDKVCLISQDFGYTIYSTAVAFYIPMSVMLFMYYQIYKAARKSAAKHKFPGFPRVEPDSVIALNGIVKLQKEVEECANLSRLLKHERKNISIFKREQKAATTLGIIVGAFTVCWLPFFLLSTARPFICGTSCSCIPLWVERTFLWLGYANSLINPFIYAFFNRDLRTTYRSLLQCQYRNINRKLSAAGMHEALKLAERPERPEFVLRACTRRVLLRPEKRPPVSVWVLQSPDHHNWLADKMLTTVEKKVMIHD
Excerpt: as §1

[1] = test system: rat retinal ganglion cells; experiment: glutamate-induced rat retinal ganglion cell death; assay type: cell-based; conditions: 10nM for 30 minutes, then 100µM glutamate, viable cells counted after 3 days; Figure 1
Excerpt: Retinal ganglion cells were selected as they represent the retinal cell that degenerates in glaucoma. MK-801 was selected as a reference NMDA antagonist.
Isolation of rat retinal ganglion cells and assessment of viability in the absence and presence of glutamate was described in Pang, et al., "Protection by Eliprodil Against Excitotoxicity in Cultured Rat Retinal Ganglion Cells", Investigative Ophthalmology & Visual Science, Vol. 40(6), pp. 1170-1176, May, 1999. Briefly, isolated cultured rat retinal ganglion cells were treated with racemic (R/S) eliprodil (10nM), R-eliprodil (10nM), or S-eliprodil (10nM) for thirty (30) minutes followed by the addition of 100µM glutamate. Survival was determined by counting viable cells after an incubation period of three (3) days. Survival with vehicle alone defines 100%. […] S-eliprodil was ineffective.

hippocampal slices = experiment: recovery of synaptic transmission after hypoxia in hippocampal slices; assay type: cell-based; conditions: for efficacy for recovery of excitatory post synaptic potentials following hypoxia: at a comparable dose
Experimental: Dose-response relations comparing the efficacy of Racemic (R/S)-eliprodil (open circles), R-eliprodil (closed circles) and memantine (closed diamonds) for their ability to improve recovery of synaptic transmission following a 15 minute period of hypoxia in hippocampal slices in vitro (Figure 2).
Preparation of the hypoxic hippocampal slice preparation has been reported by Reyes et al., "Eliprodil, a non-competitive, NR2B-selective NMDA antagonist, protects pyramidal neurons in hippocampal slices from hypoxic/ischemic damage", Brain Research, Vol. 782, pp. 212-218, 1998. Briefly, hippocampal slices were prepared acutely the same day as the experiment, and each compound was bath applied 30 minutes prior to delivery of the 15 minute hypoxic insult. Recovery of evoked epsps is expressed as percent of the initial, pre-hypoxia epsp maximum slope, with this percent recovery assessed 60 minutes after reoxygenation. Each point is the mean ± S.E.M. of 8 slices at each dose, and EC50's were calculated from a single-active site Lineweaver-Burke linear fit.

[2] = test system: lateral vestibular nucleus; experiment: NMDA-induced firing rate of the lateral vestibular nucleus in vivo
[3] = test system: piglet Purkinje fibers from the heart; experiment: action potential duration in piglet Purkinje fibers; conditions: for maximum effect on APD90: comparison between compounds; for concentration with statistically significant prolongation of APD90: action potential duration at 90% repolarization
Experimental: (§2) Eliprodil and its enantiomers were evaluated for their potential for prolonging QTc by determining their dose-related effects on cardiac electrical activity. Two different experimental models were utilized for these studies: (1) Action potential duration in piglet Purkinje fibers from the heart and (2) Electrocardiographic parameters in pentobarbital anesthetized cats.

[4] = test system: pentobarbital-anesthetized cats; experiment: hemodynamic and electrocardiographic parameters in anesthetized cats; conditions: increasing doses 0.01 to 3 mg/kg, five-minute intravenous infusion every 20 minutes
Experimental: as §2
Eliprodil and its two enantiomers were also evaluated for hemodynamic and electrocardiographic parameters in pentobarbital-anesthetized cats. […] Compounds were administered at increasing doses from 0.01 to 3 mg/kg as a five-minute intravenous infusion every 20 minutes. […]

humans = conditions: following some doses in humans; cited from earlier work
sigma receptors = conditions: rat brain; U.S. Patent No. 5,023,266; cited from earlier work
[5] = U.S. Patent No. 5,547,963; cited from earlier work
NMDA receptor = NMDA receptor (Homo sapiens, UniProt Q05586+Q13224); experiment: electrophysiology and ligand displacement studies at the NMDA receptor; assay type: binding
NMDA receptor, sequence (Q13224 27-1484, other chains not shown): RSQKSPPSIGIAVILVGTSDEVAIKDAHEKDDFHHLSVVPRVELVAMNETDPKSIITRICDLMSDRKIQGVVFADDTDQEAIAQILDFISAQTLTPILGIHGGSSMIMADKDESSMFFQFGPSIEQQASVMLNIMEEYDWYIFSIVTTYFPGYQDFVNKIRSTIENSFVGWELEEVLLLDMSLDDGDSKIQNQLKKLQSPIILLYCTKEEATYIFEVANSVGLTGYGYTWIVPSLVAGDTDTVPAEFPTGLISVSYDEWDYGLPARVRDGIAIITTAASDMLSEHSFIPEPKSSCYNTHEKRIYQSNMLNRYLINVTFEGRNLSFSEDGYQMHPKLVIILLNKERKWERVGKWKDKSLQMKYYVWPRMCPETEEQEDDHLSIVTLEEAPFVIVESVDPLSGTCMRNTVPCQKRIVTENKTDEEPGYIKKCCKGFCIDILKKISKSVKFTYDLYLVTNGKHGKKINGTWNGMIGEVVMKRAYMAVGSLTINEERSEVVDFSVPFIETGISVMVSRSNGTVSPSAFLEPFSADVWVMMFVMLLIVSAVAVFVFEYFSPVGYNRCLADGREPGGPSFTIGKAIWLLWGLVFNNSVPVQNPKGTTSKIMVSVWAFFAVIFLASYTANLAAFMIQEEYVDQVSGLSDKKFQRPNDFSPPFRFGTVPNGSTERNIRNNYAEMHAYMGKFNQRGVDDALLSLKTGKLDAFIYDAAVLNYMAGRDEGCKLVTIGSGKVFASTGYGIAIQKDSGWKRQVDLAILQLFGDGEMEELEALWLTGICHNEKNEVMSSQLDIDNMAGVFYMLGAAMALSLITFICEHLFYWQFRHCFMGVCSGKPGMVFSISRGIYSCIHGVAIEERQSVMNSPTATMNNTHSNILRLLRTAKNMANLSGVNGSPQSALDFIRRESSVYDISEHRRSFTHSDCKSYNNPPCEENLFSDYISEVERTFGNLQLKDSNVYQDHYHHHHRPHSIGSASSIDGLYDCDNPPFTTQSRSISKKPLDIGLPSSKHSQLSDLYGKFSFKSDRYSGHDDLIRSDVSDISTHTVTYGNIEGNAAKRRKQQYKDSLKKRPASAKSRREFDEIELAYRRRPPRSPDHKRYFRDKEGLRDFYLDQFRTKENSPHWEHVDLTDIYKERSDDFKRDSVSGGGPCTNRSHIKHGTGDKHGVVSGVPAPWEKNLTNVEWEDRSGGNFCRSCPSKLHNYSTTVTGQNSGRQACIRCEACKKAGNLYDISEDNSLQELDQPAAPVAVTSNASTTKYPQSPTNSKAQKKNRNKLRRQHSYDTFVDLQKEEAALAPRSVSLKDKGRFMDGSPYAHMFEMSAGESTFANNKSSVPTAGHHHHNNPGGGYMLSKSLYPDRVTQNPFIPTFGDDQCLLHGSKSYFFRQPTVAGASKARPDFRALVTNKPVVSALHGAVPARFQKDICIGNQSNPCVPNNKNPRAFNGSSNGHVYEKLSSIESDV

[6] = plasma level in the anesthetized cat protocol; assay type: in vivo; conditions: 0.1 mg/kg dose, intravenous infusion

histamine H1, sequence (P35367 whole entry): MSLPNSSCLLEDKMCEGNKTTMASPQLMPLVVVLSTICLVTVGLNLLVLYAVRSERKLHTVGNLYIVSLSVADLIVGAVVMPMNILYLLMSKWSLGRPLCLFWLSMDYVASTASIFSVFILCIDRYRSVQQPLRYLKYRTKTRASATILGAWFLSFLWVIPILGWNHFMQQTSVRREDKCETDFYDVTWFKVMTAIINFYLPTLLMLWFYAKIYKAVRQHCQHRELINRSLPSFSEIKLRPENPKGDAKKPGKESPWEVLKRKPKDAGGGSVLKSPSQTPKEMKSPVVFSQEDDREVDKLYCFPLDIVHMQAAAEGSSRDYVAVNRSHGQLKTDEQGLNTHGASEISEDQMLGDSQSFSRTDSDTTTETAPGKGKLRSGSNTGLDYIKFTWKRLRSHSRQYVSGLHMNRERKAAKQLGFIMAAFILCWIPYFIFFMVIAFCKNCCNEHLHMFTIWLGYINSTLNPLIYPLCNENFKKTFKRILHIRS

SMILES	neuroprotective effect (survival of retinal ganglion cells) [1]	efficacy for recovery of excitatory post synaptic potentials following hypoxia (hippocampal slices)	inhibition of NMDA-induced firing rate [2]	maximum effect on APD90 [3]	Threshold Dose, Heart Rate Decrease [4] [mg/kg]	Threshold Dose, Mean Blood Pressure Decrease [4] [mg/kg]	Threshold Dose, QTc Prolongation [4] [mg/kg]	neurotrophic effects [5]	Ki (NMDA receptor) [µM]	concentration with statistically significant prolongation of APD90 [3] [nM]	other results
OC(CN1CCC(Cc2ccc(F)cc2)CC1)c1ccc(Cl)cc1 (racemic) [Eliprodil]	marked neuroprotective activity	less effective	strongly inhibit	equal to that of S(+) eliprodil	0.1	1.0	0.03	Equipotency			affinity (histamine H1): sub-micromolar; affinity (β3-adrenergic): sub-micromolar; affinity (5-HT uptake): sub-micromolar; affinity (5-HT2A): sub-micromolar; affinity (5-HT1A): sub-micromolar; affinity (histamine H2): sub-micromolar; affinity (α1-adrenergic): sub-micromolar; affinity (5-HT7): sub-micromolar; QTc prolongation (humans): asymptomatic QTc prolongation; binding to sigma receptors (sigma receptors): potently bind
O[C@@H](CN1CCC(Cc2ccc(F)cc2)CC1)c1ccc(Cl)cc1 [R-eliprodil, R-α-(4-chlorophenyl)-4-(4-fluorophenylmethyl)-1-peperidineethanol]	marked neuroprotective activity; also recorded: as efficacious as a protectant as racemic eliprodil	substantial recovery; also recorded: more efficacious than either racemic or S-eliprodil	strongly inhibit	less than that seen with S(+) eliprodil	0.3	1.0	0.1	Equipotency	0.2	≥ 100	potency for recovery of evoked epsps (EC50 comparison) (hippocampal slices; bath applied 30 minutes before 15 minute hypoxia, recovery 60 minutes after reoxygenation, p<0.05, Figure 2): statistically significantly more potent; plasma level [6]: 34.9 ± 2.8 ng/mL
O[C@H](CN1CCC(Cc2ccc(F)cc2)CC1)c1ccc(Cl)cc1 [S-eliprodil]	ineffective	less effective	almost inactive at the highest dose tested		0.1	1.0	0.01	Equipotency	10	≥ 30	
